Results reported in patent publication US8197860B2, “Method for enhancing nutrient absorption with astragalosides” (Nuliv Holding Inc., priority 2005, dated 2012).

How the values were obtained:
Format in all cases: cell-based, human
Caco-2 cell monolayer [1] = assay: Arginine absorption assay (transport across Caco-2 cell monolayer); set-up: key to * (regulatory effect on arginine transport): ↑: the arrows that point up represent the enhancing effect on the arginine transport; conditions: for Transport rate (arginine): 10 mM L-arginine apical
Method in brief: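 Differentiated Caco-2 monolayers on transwells, preincubated 1 h at 37° C in pH 7.4 Hepes-buffered saline with glucose. Apical 10 mM L-arginine spiked with L-[3H]-arginine; basolateral radioactivity sampled over time. Transport corrected by [3H]-mannitol, expressed as nmol/min.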

Caco2 cells [2] = assay: Folate uptake assay; set-up: key to * (regulatory effect on folate uptake): ↑: the arrows that point up represent the enhancing effect on folate uptake; conditions: compound 0.1 μM
Method in brief: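 Caco-2 cells differentiated 10 days, then pretreated 2 days with 0.1 μM isolated astragalosides in 5% FBS medium. Preincubated 1 h in HBSS-based folate uptake buffer pH 6.0; uptake started with 2 μCi/mL ³H-folic acid plus unlabeled folate.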

Caco2 cells [3] = assay: Glucose uptake assay; set-up: key to * (regulatory effect on glucose uptake): ↑: the arrows that point up represent the enhancing effect on the glucose uptake; conditions: for Uptake rate (glucose): 48 hours, 25 mM glucose
Method: To evaluate the effect of the isolated astragaloside compound on the uptake of nutrient substances across the intestinal lumen, Caco-2 cells were grown on permeable filter as an experimental model. Caco2 cells originate from human colonic adenocarcinoma and spontaneously differentiate into an enterocyte-like phenotype after two weeks. The Caco-2 cell line, derived from a human colorectal carcinoma, has been used as an in vitro model system for studying drug absorption in gastrointestinal tract. These cells form monolayers with well-developed tight-junctions, and have been evaluated in details as an in vitro model to study both transcellular transport of nutrients and drugs in intestinal lumen.
Caco-2 cells were obtained from the ATCC (American Type Culture Collection). The cells were maintained in Dulbecco's modified Eagle medium (DMEM) containing 4.5 g/L glucose and 25 mM Hepes, supplemented with 10% fetal calf serum, 100 U/mL penicillin G and […]. The medium was changed every second day. The cells were routinely checked for Mycoplasma in monthly intervals. Caco-2 cells were cultured on semi-permeable membranes to differentiate into a highly functionalized epithelial barrier with remarkable morphological and biochemical similarity to the small intestinal columnar epithelium. The Caco-2 cell monolayers could therefore be used to study the membrane transport properties of many compounds. To trypsinize the cells, the culture dish was washed once with phosphate-buffered saline (PBS) followed by adding trypsine-EDTA for 10 minutes. The trypsinized cells were separated and filtered into single cells using a 35-μm strainer cap (Falcon 2235) before being seeded for further experiments.
Caco-2 cells (5×10^4) were seeded in a 48-well plate and maintained in culture medium (DMEM with 10% FBS, 1% nonessential amino acids, L-glutamine, penicillin G (100 U/mL), streptomycin (10 μg/mL), and amphotericin B (2.5 μg/mL) in a 37° C. incubator for 10 days for the cells to differentiate. The culture medium was changed once every two days. The cells were then washed with PBS before replenishing with the culture medium containing 5% FBS and various astragalosides at the indicated concentrations (0.01, 0.1 and 1 μM) for 48 hours. The Caco2 cells were washed out of remaining glucose with PBS and replaced in the glucose buffer (80 mM NaCl, 100 mM mannitol, 20 mM Tris-HCl, pH 7.4, 3 mM K2HPO4, 1 mM CaCl2, 1 mg/mL BSA) for 1 hour. Glucose uptake was initiated by replacing the glucose buffer with 0.2 ml of glucose buffer containing 2 μCi/mL of ^14C-glucose and unlabeled cold glucose to give a final glucose concentration of 25 mM. Glucose uptake was stopped by removing the glucose buffer and washing with PBS at designated time intervals. The cells were lysed in 0.2 mL of 0.2 N NaOH, and 20 μL of the cell lysate were transferred to the filter-bottomed UniFilter plates (Perkin-Elmer, Wellesley, Mass., USA) and dried in a vacuum oven at 37° C. The bottom of the UniFilter plate was sealed and 25 μL of the counting solution were added into each well. Adhesive plate sealers were used in place of the lids and radioactivity of each sample was counted using the microplate liquid scintillation counter (TopCount, Packard NXT, Packard BioScience Company, Meriden, Conn., USA). The amount of glucose accumulated in the cells was calculated and normalized to protein concentration, and uptake rate was expressed as nanomoles of glucose per minutes per milligram of cell protein (nmol/min/mg). Protein concentration was determined by a standard Bicinchoninic acid (BCA) protein assay. Nonspecific glucose uptake was measured by adding 2 μCi of L-[^14C]-glucose and subtracting from each determination to obtain specific glucose uptake.

Caco-2 cell monolayer [4] = assay: Tryptophan absorption assay (transport across Caco-2 cell monolayer); set-up: key to * (regulatory effect on tryptophan transport): ↑: the arrows that point up represent the enhancing effect on the tryptophan transport
Method in brief: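 Differentiated Caco-2 monolayers on transwell filters were preincubated for 1 h at 37 °C in choline chloride-based buffer at pH 7.4. Transport began when apical tryptophan was added. Basolateral samples taken over time were counted, corrected for nonspecific flux using [3H]-mannitol, and expressed as nmol/min.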

For `CC(C)(O)C1CC[C@](C)(C2[C@@H](O)C[C@@]3(C)C4C[C@H](OC5OC(CO)C(O)C(O)C5O)C5C(C)(C)[C@@H](O)CCC56CC46CC[C@]23C)O1` (stereo partly drawn) [AA, cycloastragenol 6-O-β-D-gluco-pyranose], the “Regulatory effects on the arginine transport across the Caco2 cell monolayer” value (Caco-2 cell monolayer [1]; Table 3 summary) was “had regulatory effects on the arginine transport”, the “* (regulatory effect on arginine transport)” value (Caco-2 cell monolayer [1]; compound 0.01 μM) was “↑” and the “Percentage (arginine transport, control = 100)” value (Caco-2 cell monolayer [1]; compound 0.01 μM) was 199.66%. For the same compound, the “Transport rate (arginine)” value (Caco-2 cell monolayer [1]; compound 0.01 μM) was 21.3347 ± 1.7800 nmol/min, the “* (regulatory effect on arginine transport)” value (Caco-2 cell monolayer [1]; compound 0.1 μM) was “↑” and the “Percentage (arginine transport, control = 100)” value (Caco-2 cell monolayer [1]; compound 0.1 μM) was 170.48%. For the same compound, the “Transport rate (arginine)” value (Caco-2 cell monolayer [1]; compound 0.1 μM) was 18.2169 ± 1.8700 nmol/min, the “* (regulatory effect on arginine transport)” value (Caco-2 cell monolayer [1]; compound 1 μM) was “↑” and the “Percentage (arginine transport, control = 100)” value (Caco-2 cell monolayer [1]; compound 1 μM) was 162.06%. The “Transport rate (arginine)” value (Caco-2 cell monolayer [1]; compound 1 μM) was 17.3164 ± 1.6150 nmol/min, the Arginine transport rate (Caco-2 cell monolayer [1]; concentration from 0.01 μM to 1 μM) was “increased” and the “* (regulatory effect on folate uptake)” value (Caco2 cells [2]) was “↑”. For the same compound, the “Percentage (folate uptake vs own control)” value (Caco2 cells [2]) was 158.52%, the “Uptake rate (folate)” value (Caco2 cells [2]; 2 days, 5 μM folate, pH 6.0) was 84.030 ± 4.9410 pmol/mg/min and the “Regulatory effects on the glucose uptake of the Caco2 cells” value (Caco2 cells [3]; Table 2 summary) was “had regulatory effects on the glucose uptake”. The “* (regulatory effect on glucose uptake)” value (Caco2 cells [3]; compound 0.01 μM) was “↑”, the “Percentage (glucose uptake, control = 100)” value (Caco2 cells [3]; compound 0.01 μM) was 179.69% and the “Uptake rate (glucose)” value (Caco2 cells [3]; compound 0.01 μM) was 11.450 ± 3.2760 nmol/mg/min. For the same compound, the “* (regulatory effect on glucose uptake)” value (Caco2 cells [3]; compound 0.1 μM) was “↑”, the “Percentage (glucose uptake, control = 100)” value (Caco2 cells [3]; compound 0.1 μM) was 146.67% and the “Uptake rate (glucose)” value (Caco2 cells [3]; compound 0.1 μM) was 9.3460 ± 2.3210 nmol/mg/min. The “* (regulatory effect on glucose uptake)” value (Caco2 cells [3]; compound 1 μM) was “↑”, the “Percentage (glucose uptake, control = 100)” value (Caco2 cells [3]; compound 1 μM) was 145.68% and the “Uptake rate (glucose)” value (Caco2 cells [3]; compound 1 μM) was 9.2830 ± 2.1150 nmol/mg/min. The “Regulatory effects on the tryptophan transport across the Caco2 cell monolayer” value (Caco-2 cell monolayer [4]; Table 4 summary) was “had regulatory effects on the tryptophan transport”, the “* (regulatory effect on tryptophan transport)” value (Caco-2 cell monolayer [4]; compound 0.01 μM) was “↑” and the “Percentage (tryptophan transport, control = 100)” value (Caco-2 cell monolayer [4]; compound 0.01 μM) was 133.08%. For the same compound, the “Transport rate (tryptophan)” value (Caco-2 cell monolayer [4]; compound 0.01 μM) was 11.900 ± 0.6231 nmol/min, the “* (regulatory effect on tryptophan transport)” value (Caco-2 cell monolayer [4]; compound 0.1 μM) was “↑” and the “Percentage (tryptophan transport, control = 100)” value (Caco-2 cell monolayer [4]; compound 0.1 μM) was 156.56%. The “Transport rate (tryptophan)” value (Caco-2 cell monolayer [4]; compound 0.1 μM) was 14.000 ± 0.6445 nmol/min, the “* (regulatory effect on tryptophan transport)” value (Caco-2 cell monolayer [4]; compound 1 μM) was “↑” and the “Percentage (tryptophan transport, control = 100)” value (Caco-2 cell monolayer [4]; compound 1 μM) was 135.32%. The “Transport rate (tryptophan)” value (Caco-2 cell monolayer [4]; compound 1 μM) was 12.100 ± 0.5197 nmol/min and the Tryptophan transport rate (Caco-2 cell monolayer [4]; concentration from 0.01 μM to 1 mM) was “increased”.
